From patent US8148391B2 (Cephalon, Inc., priority 2006, dated 2012)
Read-outs that look alike come from different tables or passages of the source. Each block holds one compound with its values, some of them ahead of it.

Experiments:
[1] = target: T1, baculovirus-expressed ALK (Homo sapiens, UniProt Q9UM73); assay: ALK Kinase Assay (ELISA-type, time-resolved fluorescence); type: biochemical
T1 construct: host or cells: baculovirus expression system
Outline: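 Wells were coated with phospholipase C-γ at 10 μg/mL in Tris-buffered saline. Adding 30 ng/ml enzyme started the reaction, which ran at 37° C for 15 minutes before Eu-N1 PT66 antibody detection. Percent inhibition versus log10 concentration gave IC50 by variable-slope fit.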

[2] = target: T2, c-Met (cytoplasmic domain) (Homo sapiens, UniProt P08581); assay: c-Met Kinase Assay (same methods as for ALK, with modifications); type: biochemical
T2 construct: 10 ng/mL c-Met (cytoplasmic domain, Invitrogen Corporation #PV3143); purchased Invitrogen Corporation PV3143
T2 sequence (P08581 956-1390 limits assumed): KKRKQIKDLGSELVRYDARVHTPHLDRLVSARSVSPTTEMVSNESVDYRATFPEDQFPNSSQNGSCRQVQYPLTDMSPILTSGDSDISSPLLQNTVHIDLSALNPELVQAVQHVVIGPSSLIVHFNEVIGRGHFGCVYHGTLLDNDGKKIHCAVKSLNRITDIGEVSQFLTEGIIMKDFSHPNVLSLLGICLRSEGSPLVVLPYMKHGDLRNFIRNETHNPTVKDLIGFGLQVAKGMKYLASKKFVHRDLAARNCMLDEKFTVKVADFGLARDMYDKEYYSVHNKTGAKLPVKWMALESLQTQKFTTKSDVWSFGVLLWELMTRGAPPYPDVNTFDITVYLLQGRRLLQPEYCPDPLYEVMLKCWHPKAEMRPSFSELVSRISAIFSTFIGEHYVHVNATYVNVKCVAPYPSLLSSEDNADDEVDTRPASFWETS
Outline: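 IC50 values were fitted by variable-slope sigmoidal regression of percent inhibition against log compound concentration. Phosphorylation was read with Eu-N1 PT66 antibody after a 15 min, 37 °C reaction. The reaction was initiated with 10 ng/mL c-Met cytoplasmic domain on wells coated with 10 μg/mL PLC-γ in TBS.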

[3] = ALK kinase inhibition, 1 μM ATP, read-out: ALK Activity
[4] = c-Met kinase inhibition, 1 μM ATP, read-out: cMet Activity
[5] = 1 μM ATP (Km level), 30 ng/ml ALK, 37° C., 15 minutes, read-out: ALK Activity (ALK kinase inhibition, IC50 class)
[6] = 1 μM ATP (Km level), 10 ng/mL c-Met, read-out: cMet Activity (c-Met kinase inhibition, IC50 class)
[7] = 1 μM ATP (Km level), read-out: ALK Activity (ALK Kinase Inhibition, IC50)
[8] = 1 μM ATP (Km level), read-out: cMet Activity (c-Met Kinase Inhibition, IC50)
[9] = ALK kinase inhibition, 1 μM ATP (Km level), read-out: ALK Activity
[10] = c-Met kinase inhibition, 1 μM ATP (Km level), read-out: cMet Activity

T1 sequence (Q9UM73 19-1620): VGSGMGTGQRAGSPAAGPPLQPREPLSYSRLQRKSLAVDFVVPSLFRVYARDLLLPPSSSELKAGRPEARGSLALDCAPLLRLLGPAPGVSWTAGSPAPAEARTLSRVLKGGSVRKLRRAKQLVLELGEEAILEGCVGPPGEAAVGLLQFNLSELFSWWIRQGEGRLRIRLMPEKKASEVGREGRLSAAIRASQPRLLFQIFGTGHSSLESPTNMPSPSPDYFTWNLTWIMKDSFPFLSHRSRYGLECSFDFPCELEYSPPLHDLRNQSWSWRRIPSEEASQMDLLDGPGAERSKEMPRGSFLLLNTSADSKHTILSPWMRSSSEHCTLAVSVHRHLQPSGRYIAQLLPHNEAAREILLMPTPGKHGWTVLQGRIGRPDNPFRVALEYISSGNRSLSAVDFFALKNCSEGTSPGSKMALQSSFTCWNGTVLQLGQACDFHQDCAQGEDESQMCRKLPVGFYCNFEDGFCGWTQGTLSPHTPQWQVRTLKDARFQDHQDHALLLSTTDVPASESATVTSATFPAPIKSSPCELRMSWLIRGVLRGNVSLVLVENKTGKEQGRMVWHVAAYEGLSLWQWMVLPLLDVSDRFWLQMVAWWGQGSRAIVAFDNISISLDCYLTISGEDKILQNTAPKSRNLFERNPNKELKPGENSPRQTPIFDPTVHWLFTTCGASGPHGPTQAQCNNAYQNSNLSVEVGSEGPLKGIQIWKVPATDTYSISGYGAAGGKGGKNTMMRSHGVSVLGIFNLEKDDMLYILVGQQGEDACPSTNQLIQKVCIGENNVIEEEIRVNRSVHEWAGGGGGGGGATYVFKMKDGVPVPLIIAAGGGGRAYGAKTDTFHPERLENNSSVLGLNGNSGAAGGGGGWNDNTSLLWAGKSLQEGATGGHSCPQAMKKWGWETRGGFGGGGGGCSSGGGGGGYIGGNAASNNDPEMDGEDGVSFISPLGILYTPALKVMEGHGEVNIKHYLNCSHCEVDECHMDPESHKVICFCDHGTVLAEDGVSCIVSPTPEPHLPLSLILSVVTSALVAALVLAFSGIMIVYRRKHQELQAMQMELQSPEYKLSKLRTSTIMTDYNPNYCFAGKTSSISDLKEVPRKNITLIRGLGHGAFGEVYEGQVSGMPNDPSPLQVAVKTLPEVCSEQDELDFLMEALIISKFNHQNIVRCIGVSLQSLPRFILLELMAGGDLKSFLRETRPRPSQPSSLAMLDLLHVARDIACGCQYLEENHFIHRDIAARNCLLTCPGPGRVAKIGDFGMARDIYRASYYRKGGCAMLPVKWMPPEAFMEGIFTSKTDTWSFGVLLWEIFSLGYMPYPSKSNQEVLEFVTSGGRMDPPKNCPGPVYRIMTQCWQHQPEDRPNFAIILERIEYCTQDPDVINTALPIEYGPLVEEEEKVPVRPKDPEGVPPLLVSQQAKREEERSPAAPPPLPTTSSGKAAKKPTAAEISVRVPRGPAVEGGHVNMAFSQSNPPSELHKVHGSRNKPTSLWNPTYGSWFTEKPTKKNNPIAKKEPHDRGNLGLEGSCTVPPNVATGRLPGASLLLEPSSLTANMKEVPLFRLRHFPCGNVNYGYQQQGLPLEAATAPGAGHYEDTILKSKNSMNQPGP

- IC50 [1, 3]: 100 to 1000 nM
- IC50 [2, 4]: 1000 to 10000 nM
Compound: COCCN1CCc2ccc(Nc3ncc(Cl)c(Nc4c(F)cccc4C(=O)NCC4CC4)n3)cc2CC1 [Example 1711, 2-{5-Chloro-2-[3-(2-methoxy-ethyl)-2,3,4,5-tetrahydro-1H-benzo[d]azepin-7-ylamino]-pyrimidin-4-ylamino}-N-cyclopropylmethyl-3-fluoro-benzamide]

- IC50 [1, 5]: < 100 nM
- IC50 [2, 6]: 100 to 1000 nM
Compound: C#CCNC(=O)c1cccc(F)c1Nc1nc(Nc2ccc3c(c2)OCCCN3C(=O)OCCOC)ncc1Cl [Example 1437, 3-[5-Chloro-4-(2-fluoro-6-prop-2-ynylcarbamoyl-phenylamino)-pyrimidin-2-ylamino]-7,8-dihydro-6H-5-oxa-9-aza-benzocycloheptene-9-carboxylic acid 2-methoxy-ethyl ester]

- IC50 [1, 5]: 100 to 1000 nM
- IC50 [2, 6]: 100 to 1000 nM
Compound: COCCN1CCc2ccc(Nc3ncc(Cl)c(Nc4c(C)cccc4C(=O)NCC#N)n3)cc2CC1 [Example 1040, 2-{5-Chloro-2-[3-(2-methoxy-ethyl)-2,3,4,5-tetrahydro-1H-benzo[d]azepin-7-ylamino]-pyrimidin-4-ylamino}-N-cyanomethyl-3-methyl-benzamide]

- IC50 [1, 7]: < 100 nM
- IC50 [2, 8]: > 10000 nM
Compound: N-((1R,2R)-2-{5-Chloro-2-[7-(2,2,2-trifluoro-ethylamino)-6,7,8,9-tetrahydro-5H-benzocyclohepten-2-ylamino]-pyrimidin-4-ylamino}-cyclohexyl)-methanesulfonamide [Example 687]

- IC50 [1, 7]: 100 to 1000 nM
- IC50 [2, 8]: > 10000 nM
Compound: COc1cc2c(cc1Nc1ncc(Cl)c(NC3(CC(N)=O)CCCCC3)n1)CCN(CC(=O)N(C)C)CC2 [Example 847, 2-{1-[5-Chloro-2-(3-dimethylcarbamoylmethyl-8-methoxy-2,3,4,5-tetrahydro-1H-benzo[d]azepin-7-ylamino)-pyrimidin-4-ylamino]-cyclohexyl}-acetamide]

- IC50 [1, 7]: < 100 nM
- IC50 [2, 8]: > 10000 nM
Compound: COc1cc2c(cc1Nc1ncc(Cl)c(Nc3ccc(N4CCN(C(C)C)CC4)c4c3C(=O)N(C)C4)n1)CCN(CCO)CC2 [Example 953, 7-{5-Chloro-2-[3-(2-hydroxy-ethyl)-8-methoxy-2,3,4,5-tetrahydro-1H-3-benzazepin-7-ylamino]-pyrimidin-4-ylamino}-4-(4-isopropyl-piperazin-1-yl)-2-methyl-2,3-dihydro-isoindol-1-one]

- IC50 [1, 9]: 1000 to 10000 nM
- IC50 [2, 10]: > 10000 nM
Compound: COCCN1CCc2ccc(Nc3ncc(Cl)c(N[C@@H]4CCCC[C@H]4O)n3)cc2CC1 (relative stereo) [Example 318, trans-2-{5-Chloro-2-[3-(2-methoxy-ethyl)-2,3,4,5-tetrahydro-1H-benzo[d]azepin-7-ylamino]-pyrimidin-4-ylamino}-cyclohexanol]

- IC50 [1, 7]: < 100 nM
- IC50 [2, 8]: > 10000 nM
Compound: COc1cc2c(cc1Nc1ncc(Cl)c(Nc3ccc(N4CCOCC4)cc3OC)n1)CCN(CC(=O)OC(C)C)CC2 [Example 800, {7-[5-Chloro-4-(2-methoxy-4-morpholin-4-yl-phenylamino)-pyrimidin-2-ylamino]-8-methoxy-1,2,4,5-tetrahydro-benzo[d]azepin-3-yl}-acetic acid isopropyl ester]

- IC50 [1, 9]: < 100 nM
- IC50 [2, 10]: > 10000 nM
Compound: CCN1CCN(CC)c2cc(Nc3ncc(Cl)c(N[C@@H]4CCCC[C@H]4NS(C)(=O)=O)n3)c(Cl)cc2C1 [Example 427, N-{(1R,2R)-2-[5-Chloro-2-(7-chloro-1,4-diethyl-2,3,4,5-tetrahydro-1H-benzo[e][1,4]diazepin-8-ylamino)-pyrimidin-4-ylamino]-cyclohexyl}-methanesulfonamide]

- IC50 [1, 5]: < 100 nM
- IC50 [2, 6]: > 10000 nM
Compound: COc1cc2c(cc1Nc1ncc(Cl)c(N[C@@H]3CCCC[C@H]3NS(C)(=O)=O)n1)CCC(N1CCN(C)CC1)CC2 (single isomer, unassigned) [Example 1101]

- IC50 [1, 5]: 1000 to 10000 nM
- IC50 [2, 6]: > 10000 nM
Compound: CS(=O)(=O)c1cccc(F)c1Nc1nc(Nc2ccc3c(c2)NC(=O)CCC3)ncc1Cl [Example 1261, 8-[5-Chloro-4-(2-fluoro-6-methanesulfonyl-phenylamino)-pyrimidin-2-ylamino]-1,3,4,5-tetrahydro-1-benzazepin-2-one]

- IC50 [1, 9]: < 100 nM
- IC50 [2, 10]: > 10000 nM
Compound: COCCN1CCN(C)c2cc(Nc3ncc(Cl)c(N[C@@H]4CCCC[C@H]4NS(C)(=O)=O)n3)c(OC)cc2C1 [Example 490, N-((1R,2R)-2-{5-Chloro-2-[7-methoxy-4-(2-methoxy-ethyl)-1-methyl-2,3,4,5-tetrahydro-1H-benzo[e][1,4]diazepin-8-ylamino]-pyrimidin-4-ylamino}-cyclohexyl)-methanesulfonamide]

- IC50 [1, 9]: < 100 nM
- IC50 [2, 10]: 100 to 1000 nM
Compound: CNC(=O)c1ccccc1Nc1nc(Nc2cc3c(cc2OC)C(=O)N(C)CCC3)ncc1Cl [Example 107, 2-[5-Chloro-2-(8-methoxy-2-methyl-1-oxo-2,3,4,5-tetrahydro-1H-benzo[c]azepin-7-ylamino)-pyrimidin-4-ylamino]-N-methyl-benzamide]

- IC50 [1, 7]: < 100 nM
- IC50 [2, 8]: 1000 to 10000 nM
Compound: COc1c(Nc2ncc(Cl)c(Nc3ccccc3S(=O)(=O)N3CCCC3)n2)ccc2c1CCC(N1CCCC(O)C1)CC2 (mixture of isomers) [Example 908, 1-(2-{5-Chloro-4-[2-(pyrrolidine-1-sulfonyl)-phenylamino]-pyrimidin-2-ylamino}-1-methoxy-6,7,8,9-tetrahydro-5H-benzocyclohepten-7-yl)-piperidin-3-ol]

- IC50 [1, 7]: < 100 nM
- IC50 [2, 8]: > 10000 nM
Compound: COc1cc2c(cc1Nc1ncc(Cl)c(Nc3ccc(N4CCC(N5CCN(C)CC5)CC4)cc3OC)n1)CCN(CC(=O)N(C)C)CC2 [Example 819, 2-[7-(5-Chloro-4-{2-methoxy-4-[4-(4-methyl-piperazin-1-yl)-piperidin-1-yl]-phenylamino}-pyrimidin-2-ylamino)-8-methoxy-1,2,4,5-tetrahydro-benzo[d]azepin-3-yl]-N,N-dimethyl-acetamide]

- IC50 [1, 9]: < 100 nM
- IC50 [2, 10]: 100 to 1000 nM
Compound: CS(=O)(=O)N[C@@H]1CCCC[C@H]1Nc1nc(Nc2ccc3c(c2)CCC(N2CCOCC2)CC3)ncc1Cl (stereo partly drawn) [Example 179, N-{(1R,2R)-2-[5-Chloro-2-(7-morpholin-4-yl-6,7,8,9-tetrahydro-5H-benzocyclohepten-2-ylamino)-pyrimidin-4-ylamino]-cyclohexyl}-methanesulfonamide]

- IC50 [1, 7]: < 100 nM
- IC50 [2, 8]: > 10000 nM
Compound: COc1cc(N2CCOCC2)ccc1Nc1nc(Nc2ccc3c(c2OC)CCC(N2CCCC(O)C2)CC3)ncc1Cl (mixture of isomers) [Example 913, 1-{2-[5-Chloro-4-(2-methoxy-4-morpholin-4-yl-phenylamino)-pyrimidin-2-ylamino]-1-methoxy-6,7,8,9-tetrahydro-5H-benzocyclohepten-7-yl}-piperidin-3-ol]

- IC50 [1, 7]: < 100 nM
- IC50 [2, 8]: > 10000 nM
Compound: CNC(=O)CN1CCc2cc(Nc3ncc(Cl)c(Nc4ccc(N5CCN(C)CC5)cc4OC)n3)c(OC)cc2CC1 [Example 783, 2-(7-{5-Chloro-4-[2-methoxy-4-(4-methyl-piperazin-1-yl)-phenylamino]-pyrimidin-2-ylamino}-8-methoxy-1,2,4,5-tetrahydro-benzo[d]azepin-3-yl)-N-methyl-acetamide]

- IC50 [1, 3]: < 100 nM
- IC50 [2, 4]: > 10000 nM
Compound: COc1cc2c(cc1Nc1ncc(Cl)c(Nc3ccc(N4CCOCC4)cc3OC)n1)CCN(CCN1CCOCC1)CC2 [Example 1523, 5-Chloro-N(2)-[8-methoxy-3-(2-morpholin-4-yl-ethyl)-2,3,4,5-tetrahydro-1H-3-benzazepin-7-yl]-N(4)-(2-methoxy-4-morpholin-4-yl-phenyl)-pyrimidine-2,4-diamine]

- IC50 [1, 7]: < 100 nM
- IC50 [2, 8]: > 10000 nM
Compound: COc1c(Nc2ncc(Cl)c(N[C@@H]3CCCC[C@H]3NS(C)(=O)=O)n2)ccc2c1CCC(N1CCOCC1)CC2 (mixture of isomers) [Example 884, N-{(1R,2R)-2-[5-Chloro-2-(1-methoxy-7-morpholin-4-yl-6,7,8,9-tetrahydro-5H-benzocyclohepten-2-ylamino)-pyrimidin-4-ylamino]-cyclohexyl}-methanesulfonamide]

- IC50 [1, 9]: < 100 nM
- IC50 [2, 10]: 100 to 1000 nM
Compound: CS(=O)(=O)N[C@@H]1CCCC[C@H]1Nc1nc(Nc2ccc3c(c2)CCN(C[C@@H](O)C(F)(F)F)CC3)ncc1Cl [Example 449, N-((1R,2R)-2-{5-Chloro-2-[3-((R)-3,3,3-trifluoro-2-hydroxy-propyl)-2,3,4,5-tetrahydro-1H-benzo[d]azepin-7-ylamino]-pyrimidin-4-ylamino}-cyclohexyl)-methanesulfonamide]

- IC50 [1, 3]: 100 to 1000 nM
- IC50 [2, 4]: 100 to 1000 nM
Compound: CNC(=O)c1ccccc1Nc1nc(Nc2ccc3c(c2)NC(=O)CN(Cc2ccccc2)C3)ncc1Cl [Example 1859, 2-[2-(4-Benzyl-2-oxo-2,3,4,5-tetrahydro-1H-benzo[e][1,4]diazepin-8-ylamino)-5-chloro-pyrimidin-4-ylamino]-N-methyl-benzamide]

- IC50 [1, 7]: 1000 to 10000 nM
- IC50 [2, 8]: > 10000 nM
Compound: CNS(=O)(=O)c1ccccc1Nc1nc(Nc2cccc3c2N(C)CCN(C)C3=O)ncc1Cl [Example 543, 2-[5-Chloro-2-(1,4-dimethyl-5-oxo-2,3,4,5-tetrahydro-1H-benzo[e][1,4]diazepin-9-ylamino)-pyrimidin-4-ylamino]-N-methyl-benzenesulfonamide]
